One data set in a line: in vitro. The settings on record: human, Caco-2.
Data set [1] can be described thus: Half life in human Caco2 cell homogenate at 200 uM by LC/MS analysis. It is filed as ADME, Colon. The settings on record: Caco-2 cell homogenate.
Data set [2] addresses T1, Mu-type opioid receptor (Homo sapiens, UniProt P35372). Briefly: Displacement of [3H]DAMGO from MOP receptor expressed in CHO-K1 cells after overnight incubation by beta counting method. It is filed as cell-based.
For a further data set, the system named is CHO-K1. Briefly: Selectivity ratio of Ki for DOP receptor expressed in CHO-K1 cells to Ki for MOP receptor expressed in CHO-K1 cells. It counts as cell-based.
Data set [3] has as its target T1, Mu-type opioid receptor. Briefly: Agonist activity at MOP receptor expressed in CHO-K1 cells assessed as inhibition of forskolin-stimulated cAMP accumulation after 30 mins. It is filed as functional, cell-based.
Data set [4] deals with Delta-type opioid receptor (Homo sapiens, UniProt P41143). Briefly: Displacement of [3H]DPDPE from DOP receptor expressed in CHO-K1 cells after overnight incubation by beta counting method. It counts as cell-based. Background: Loss of bound radioactivity is the signal in a displacement assay; it reports binding, not function.
Sequence of Delta-type opioid receptor (P41143 whole entry): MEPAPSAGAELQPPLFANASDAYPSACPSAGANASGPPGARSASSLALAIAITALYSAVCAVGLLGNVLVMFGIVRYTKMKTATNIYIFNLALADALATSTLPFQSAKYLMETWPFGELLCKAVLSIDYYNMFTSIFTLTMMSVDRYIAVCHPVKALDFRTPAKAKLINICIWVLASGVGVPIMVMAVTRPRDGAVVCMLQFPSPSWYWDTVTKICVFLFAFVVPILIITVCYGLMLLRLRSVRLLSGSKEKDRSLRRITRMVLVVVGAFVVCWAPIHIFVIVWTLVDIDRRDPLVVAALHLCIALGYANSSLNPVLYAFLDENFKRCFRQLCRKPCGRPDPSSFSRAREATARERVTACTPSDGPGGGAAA

Here are results for seven compounds from ChEMBL document CHEMBL2157899 (Bioorg Med Chem, 2012).

Non-standard residues stand in square brackets, D forms with d. Residues, ends and D or L forms follow the SMILES beside them. ξ: configuration not given here. ξGly(octyl) = CCCCCCCCC(N)C(=O)O

T1 sequence (P35372 whole entry): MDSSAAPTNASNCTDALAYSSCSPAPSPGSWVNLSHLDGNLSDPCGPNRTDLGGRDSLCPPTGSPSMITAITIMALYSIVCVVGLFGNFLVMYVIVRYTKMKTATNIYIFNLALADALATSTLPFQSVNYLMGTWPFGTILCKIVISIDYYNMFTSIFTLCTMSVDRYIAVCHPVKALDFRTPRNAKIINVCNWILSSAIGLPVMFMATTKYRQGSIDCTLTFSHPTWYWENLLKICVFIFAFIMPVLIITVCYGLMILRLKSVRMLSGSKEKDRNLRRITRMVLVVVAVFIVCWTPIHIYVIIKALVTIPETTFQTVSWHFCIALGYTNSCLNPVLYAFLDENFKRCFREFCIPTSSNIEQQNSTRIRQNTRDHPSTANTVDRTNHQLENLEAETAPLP
Description for in vitro: Apparent permeability across human Caco2 cells st 200 uM measured over 150 mins by LC/MS analysis

Usually Papp stands for the rate of passage across a membrane or cell layer, normalised by area and donor concentration. The low end stands for poor permeation, the high end for ready permeation. `OC[C@@H](O)[C@@H](O)[C@H](O)[C@H](O)CO` [MANNITOL] returned a Papp at 2.5 h, 200 µM in the data set “in vitro” of 0.488 ×10⁻⁶ cm/s.
The term half-life denotes the time needed for the level to fall by half in the phase considered. Low readings indicate fast loss, high ones slow loss. For orientation: Ki means a measure of affinity in units of concentration, obtained from inhibition or displacement. Broadly, the IC50 is the point on the concentration scale where inhibition reaches its midpoint. In turn, `CCCCCCCCC(N)C(=O)N[C@@H](Cc1ccc(O)cc1)C(=O)N1CCC[C@H]1C(=O)N[C@@H](Cc1c[nH]c2ccccc12)C(=O)N[C@@H](Cc1ccccc1)C(=O)N[C@@H](Cc1ccccc1)C(=O)NCC(=O)N[C@@H](CC(C)C)C(=O)N[C@@H](CCSC)C(N)=O` (stereo partly drawn) (H-[ξGly(octyl)]YPWFFGLM-NH2) came in with a half-life at 200 µM in data set [1] of 75.8 min. The Ki on Mu-type opioid receptor [2] stood at 3.87 nM. In the data set with CHO-K1, the Ratio Ki stood at 318. The compound also came in with a Papp at 2.5 h, 200 µM in the data set “in vitro” of 10.2 ×10⁻⁶ cm/s. On Mu-type opioid receptor [3], the IC50 turned out to be 45 nM and the inhibition entry is “Dose-dependent effect”. Further, the Ki in data set [4] came to 1230 nM.
H-YPWFGLM-NH2: the half-life at 200 µM in data set [1] was 10.7 min. The Ki on Mu-type opioid receptor [2] turned out to be 1.6 nM; in data set [4] it was 1980 nM. Also, the Ratio Ki with CHO-K1 was 1240. This compound registered a Papp at 2.5 h, 200 µM in the data set “in vitro” of 1.41 ×10⁻⁶ cm/s.
For `NC(=O)[C@H](Cc1ccccc1)NC(=O)[C@H](Cc1c[nH]c2ccccc12)NC(=O)[C@@H]1CCCN1C(=O)[C@@H](N)Cc1ccc(O)cc1` [ENDOMORPHIN-1], in data set [1], the half-life at 200 µM amounted to 5.6 min. The Papp at 2.5 h, 200 µM in “in vitro” was found to be 1.01 ×10⁻⁶ cm/s.
`CC(C)NCC(O)COc1cccc2ccccc12` (stereo not drawn) [PROPRANOLOL] displayed a Papp at 2.5 h, 200 µM in “in vitro” of 30.5 ×10⁻⁶ cm/s.
In data set [1], H-YPWFFGLM-NH2 came in with a half-life at 200 µM of 15.6 min. On Mu-type opioid receptor [2], this compound returned a Ki of 0.73 nM. Moreover, the Ratio Ki with CHO-K1 was 2130. The same compound gave a Papp at 2.5 h, 200 µM in “in vitro” of 2.04 ×10⁻⁶ cm/s. Further, at Mu-type opioid receptor [3], the IC50 came to 12 nM and the inhibition entry was “Dose-dependent effect”. The Ki in data set [4] came to 1560 nM.
Turning to `CCCCCCCCC(N)C(=O)N[C@@H](Cc1ccc(O)cc1)C(=O)N1CCC[C@H]1C(=O)N[C@@H](Cc1c[nH]c2ccccc12)C(=O)N[C@@H](Cc1ccccc1)C(=O)NCC(=O)N[C@@H](CC(C)C)C(=O)N[C@@H](CCSC)C(N)=O` (stereo partly drawn) (H-[ξGly(octyl)]YPWFGLM-NH2), the half-life at 200 µM in data set [1] amounted to 52.5 min. Moreover, the Ki on Mu-type opioid receptor [2] came to 132 nM; in data set [4], 2250 nM. Besides, the Ratio Ki in the data set with CHO-K1 worked out at 17. Moreover, in “in vitro”, the Papp at 2.5 h, 200 µM was found to be 8.08 ×10⁻⁶ cm/s.
